From patent US20250034216A1, “STEREOSELECTIVE COVALENT LIGANDS FOR ONCOGENIC AND IMMUNOLOGICAL PROTEINS” (The Scripps Research Institute, priority 2021, published 2025)

Columns and labels:
Test in all cases: IA-DTB cysteine engagement
Assay type in all cases: binding
Details in all cases: 22Rv1 cells, 20 μM probe, 1 h, relative to DMSO
BLOC1S2_C41 = biological target: T1, BLOC1S2_C41 (Homo sapiens, UniProt Q6QNY1)
T1 construct: endogenous in cells; host or cells: 22Rv1
T1 sequence (Q6QNY1 1-142): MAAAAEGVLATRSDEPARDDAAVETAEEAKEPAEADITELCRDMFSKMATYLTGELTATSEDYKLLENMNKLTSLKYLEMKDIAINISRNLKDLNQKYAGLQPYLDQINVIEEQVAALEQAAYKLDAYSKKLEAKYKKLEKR
Outline: (§1)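 Read-out is TMT-based cysteine engagement, expressed as each reporter ion intensity divided by the average of the DMSO channels. Before that, probe-treated cell lysates were capped with IA-DTB, digested, enriched on streptavidin and TMT-tagged. PSMs with DMSO summed intensity <10,000 or DMSO CV >0.5 were excluded.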

CTC1_C584 = biological target: T2, CTC1_C584 (Homo sapiens, UniProt Q2NKJ3)
T2 construct: endogenous in cells; host or cells: 22Rv1
T2 sequence (Q2NKJ3 1-1217): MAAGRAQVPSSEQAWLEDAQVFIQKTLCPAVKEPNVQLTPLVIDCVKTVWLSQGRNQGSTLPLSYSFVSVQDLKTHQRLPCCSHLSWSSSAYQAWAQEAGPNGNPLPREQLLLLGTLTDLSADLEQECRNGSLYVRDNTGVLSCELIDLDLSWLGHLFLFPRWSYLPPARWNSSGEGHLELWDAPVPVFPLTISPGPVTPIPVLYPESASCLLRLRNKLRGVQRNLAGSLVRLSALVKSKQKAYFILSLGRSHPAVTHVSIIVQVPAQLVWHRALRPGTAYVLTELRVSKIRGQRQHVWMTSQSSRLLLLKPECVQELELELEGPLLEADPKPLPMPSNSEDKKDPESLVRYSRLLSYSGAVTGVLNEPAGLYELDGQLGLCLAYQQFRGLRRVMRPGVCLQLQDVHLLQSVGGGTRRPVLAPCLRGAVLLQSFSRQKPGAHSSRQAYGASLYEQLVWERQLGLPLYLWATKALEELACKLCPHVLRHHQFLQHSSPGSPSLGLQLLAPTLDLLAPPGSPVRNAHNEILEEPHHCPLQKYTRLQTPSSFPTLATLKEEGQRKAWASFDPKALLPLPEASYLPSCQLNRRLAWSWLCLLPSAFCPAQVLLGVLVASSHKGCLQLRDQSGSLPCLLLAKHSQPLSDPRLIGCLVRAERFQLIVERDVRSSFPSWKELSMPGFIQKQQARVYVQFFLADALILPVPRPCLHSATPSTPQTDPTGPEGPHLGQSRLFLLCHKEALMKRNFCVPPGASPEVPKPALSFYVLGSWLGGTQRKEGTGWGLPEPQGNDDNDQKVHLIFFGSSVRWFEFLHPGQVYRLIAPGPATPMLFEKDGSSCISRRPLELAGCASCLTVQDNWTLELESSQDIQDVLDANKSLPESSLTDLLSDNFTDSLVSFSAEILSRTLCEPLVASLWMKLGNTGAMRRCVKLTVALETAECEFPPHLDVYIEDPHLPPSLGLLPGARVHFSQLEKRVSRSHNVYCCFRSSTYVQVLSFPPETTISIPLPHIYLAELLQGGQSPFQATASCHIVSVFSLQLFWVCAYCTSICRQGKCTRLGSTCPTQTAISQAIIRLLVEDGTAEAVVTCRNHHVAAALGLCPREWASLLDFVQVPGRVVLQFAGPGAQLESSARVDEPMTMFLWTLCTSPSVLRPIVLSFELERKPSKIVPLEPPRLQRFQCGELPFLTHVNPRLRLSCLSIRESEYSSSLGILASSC
Outline: as §1

DDX39B_C87 = biological target: T3, DDX39B_C87 (Homo sapiens, UniProt Q13838)
T3 construct: endogenous in cells; host or cells: 22Rv1
T3 sequence (Q13838 whole entry): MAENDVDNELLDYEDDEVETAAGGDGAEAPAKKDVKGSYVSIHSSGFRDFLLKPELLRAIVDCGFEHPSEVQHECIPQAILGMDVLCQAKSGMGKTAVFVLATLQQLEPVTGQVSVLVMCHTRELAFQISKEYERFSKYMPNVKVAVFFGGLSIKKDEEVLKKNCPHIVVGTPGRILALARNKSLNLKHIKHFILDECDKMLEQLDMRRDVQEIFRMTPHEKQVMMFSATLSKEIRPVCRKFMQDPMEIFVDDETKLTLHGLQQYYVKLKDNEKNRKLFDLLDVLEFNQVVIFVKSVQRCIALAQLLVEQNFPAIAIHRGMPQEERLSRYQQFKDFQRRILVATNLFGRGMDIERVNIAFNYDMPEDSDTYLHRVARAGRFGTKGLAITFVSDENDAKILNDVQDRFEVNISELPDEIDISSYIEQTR
Outline: as §1

SYNE2_C2994 = biological target: T4, SYNE2_C2994 (Homo sapiens, UniProt Q8WXH0)
T4 construct: endogenous in cells; host or cells: 22Rv1
Outline: as §1

Compound | % engagement BLOC1S2_C41 (BLOC1S2_C41) [%] | % engagement CTC1_C584 (CTC1_C584) [%] | % engagement DDX39B_C87 (DDX39B_C87) [%] | % engagement SYNE2_C2994 (SYNE2_C2994) [%]
C=CC(=O)N1C[C@H](c2ccc(Br)cc2)[C@H]1C(=O)Nc1cccc2cccnc12 [MY-3A, (2S,3S)-1-acryloyl-3-(4-bromophenyl)-N-(quinolin-8-yl)azetidine-2-carboxamide] | 3.5 | 23.5 | 23.5 | 11.25
C=CC(=O)N1C[C@H](c2ccc(Br)cc2)[C@@H]1C(=O)Nc1cccc2cccnc12 [MY-1B, (2R,3S)-1-acryloyl-3-(4-bromophenyl)-N-(quinolin-8-yl)azetidine-2-carboxamide] | 70 | 37.25 | 37 | 75.75
C=CC(=O)N1C[C@H](c2ccc(Br)cc2)[C@H]1C(=O)Nc1cccc2cccnc12 [MY-3B, (2S,3S)-1-acryloyl-3-(4-bromophenyl)-N-(quinolin-8-yl)azetidine-2-carboxamide] | 66.5 | 66.25 | 67.5 | 37.5
C=CC(=O)N1C[C@@H](c2ccc(Br)cc2)[C@H]1C(=O)Nc1cccc2cccnc12 [MY-1A, (2S,3R)-1-acryloyl-3-(4-bromophenyl)-N-(quinolin-8-yl)azetidine-2-carboxamide] | 6 | 20.25 | 44.5 | 29.5
